Measured values: patent US20050120398A1, “Animal model for HCV infection” (Vertex Pharmaceuticals Incorporated, priority 2003, published 2005)
Entries after “also recorded” stand apart in the source; their conditions may differ.

Legend:
[1] = system: Ad.MT.HCVpro (mutant HCV protease fused with SEAP); test: HCV protease mouse model: SEAP in serum, mutant HCV protease adenovirus; type: in vivo, SCID mice; conditions: 300 mg/kg orally twice a day; 10^9.5 IFU/mice Ad.MT.HCVpro; serum 24 hours post-infection
Wild type HCV protease = test: Steatosis associated with HCV protease expression, Oil Red O staining of liver sections; type: in vivo, SCID mice; conditions: 300 mg/kg BID oral for the initial 3 days; 10^11 IFU/mouse; sacrificed at 7 days
Description: FIG. 25 depicts that steatosis associated with HCV protease expression can be ameliorated by HCV protease inhibitor VX-950. SCID mice were injected with 10^11 IFU/mouse of replication defective adenovirus expressing Wild type HCV protease or mutant HCV protease or SEAP alone (n=6). One group of mice (n=6) injected with adenovirus expressing wild type HCV protease were treated with 300 mg/kg BID via oral route for the initial 3 days. All the mice were sacrificed at 7 days and liver sections were stained with Oil Red O. A significant accumulation of fat in the livers of mice expressing wild type HCV protease compared to either mutant HCV protease or SEAP alone groups (20× magnification).
1. Cryostat frozen sections of livers stored at −80° C. were tested.
2. The Oil Red O Solution was prepared as follows:
a) Stock Solution Oil Red O: 500 mg Oil red O stain (Sigma O-0625) was dissolved in 100 ml isopropanol at room temperature overnight with stirring. The solution was filtered through a #1 Whatman filter. The solution was stored at room temperature protected from light.
b) Working Oil Red Solution was prepared fresh the day of assay. 40% water was mixed with 60% Oil Red O stock by inversion.
c) The working solution was kept at room temperature for 1 hour before filtering. Particulate material was filtered out using a #1 Whatman filter paper.
3. […]
13. The results were assessed by microscopy.

Ad.WT.HCVpro = test: Liver injury in mice infected with adenovirus expressing WT HCV protease; conditions: 300 mg/kg orally twice a day for the first three days; 10^11 IFU/mice; sacrificed after 7 days

CCC[C@H](NC(=O)[C@@H]1[C@H]2CCC[C@H]2CN1C(=O)[C@@H](NC(=O)[C@@H](NC(=O)c1cnccn1)C1CCCCC1)C(C)(C)C)C(=O)C(=O)NC1CC1 [VX-950]
effect on Mutant HCV protease activity (SEAP in serum) [1]: No effect | amelioration of steatosis (Oil Red O staining) (Wild type HCV protease): effective at ameliorating steatosis; also recorded: ameliorated | protection from liver injury (gross appearance and H&E liver pathology) (Ad.WT.HCVpro): protects mice from Liver injury
